Measurements: publication PMC9964544, “Evidence of Insulin-Sensitizing and Mimetic Activity of the Sesquiterpene Quinone Avarone, a Protein Tyrosine Phosphatase 1B and Aldose Reductase Dual Targeting Agent from the Marine Sponge Dysidea avara” (Pharmaceutics, 2023)
Like-named read-outs stand apart in the source and are kept apart here. Values belong to the compound of their own block, whether it stands above or below them.

Tests used:
Human PTP1B [1] = biological target: T1, Human PTP1B (Homo sapiens, UniProt P18031); set-up: polyHis (N); made in house; settings: cited from earlier work; for IC50: IC50 ± SD
T1 sequence (P18031 1-302): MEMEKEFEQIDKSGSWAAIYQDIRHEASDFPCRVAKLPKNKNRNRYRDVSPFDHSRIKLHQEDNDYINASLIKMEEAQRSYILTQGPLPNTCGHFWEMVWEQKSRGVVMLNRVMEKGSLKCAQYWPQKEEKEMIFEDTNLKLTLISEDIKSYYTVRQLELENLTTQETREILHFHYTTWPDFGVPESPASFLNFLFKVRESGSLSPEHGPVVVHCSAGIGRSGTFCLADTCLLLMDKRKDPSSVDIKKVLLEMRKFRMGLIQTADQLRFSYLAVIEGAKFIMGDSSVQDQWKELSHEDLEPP

human recombinant AKR1B1 [2] = biological target: T2, human recombinant AKR1B1 (Homo sapiens, UniProt P15121); assay: AKR1B1 inhibition assay with L-idose as substrate, NADPH oxidation (IC50); assay type: biochemical; settings: 10 mU AKR1B1, 1.6 mM L-idose, 37 °C; IC50 ± SD
T2 construct: made in house
Protocol: (§1) The purification of human recombinant AKR1B1 was performed as previously described. […] The purified enzyme, stored at −80 °C in 10 mM sodium phosphate buffer pH 7.0 containing 2 mM DTT and 30% (w/v) glycerol, was extensively dialyzed against 10 mM sodium phosphate buffer pH 7.0 before use. […] The fractions containing PTP1B were collected, concentrated, and injected into a Superdex G75 column equilibrated with Tris-HCl buffer pH 8.0 containing 150 mM NaCl and 1 mM mercaptoethanol. The fractions containing PTP1B were collected and concentrated; the purity of preparation was evaluated using SDS-PAGE. The PTP1B preparation was split into fractions of 0.5 mL volume; each fraction was stored at −80 °C.
(§2) The standard assay mixture (final volume 0.7 mL) was contained in 0.25 M sodium phosphate buffer pH 6.8, 0.18 mM NADPH, 0.4 M ammonium sulfate, 0.5 mM EDTA, and 4.7 mM GAL. One unit of enzyme activity is the amount of enzyme that catalyzes the conversion of 1 µmol of substrate/min in the above assay conditions. The same assay conditions were adopted in the inhibition studies using L-idose as the substrate at the indicated concentrations. PTP1B activity was determined using p-nitrophenylphosphate (pNPP) as the synthetic substrate. The pNPP was dissolved in 0.075 M ββ-dimethylglutarate buffer, pH 7.0, containing 1 mM dithiothreitol. Each assay was carried out at 37 °C in 1 mL of assay buffer. The reactions were started by diluting an aliquot of PTP1B preparation in the assay buffer; after 30 min, the reactions were stopped by adding 2 mL of 0.2 M KOH solution. The amount of p-nitrophenol released was determined spectrophotometrically, reading the absorbance of solutions at 400 nm (ε400nm = 18 mM^−^1cm^−^1).

Human PTP1B [3] = biological target: T1, Human PTP1B; assay: PTP1B inhibition assay with pNPP as substrate (IC50); assay type: biochemical; set-up: polyHis (N); made in house; settings: 2.5 mM pNPP, 37 °C; IC50 ± SD
Protocol: as §1, §2

C2C12 cells [4] = assay: Seahorse XFe96 Mito Stress Test in C2C12 cells; assay type: cell-based; settings: affecting maximal respiration and ATP production-linked oxygen consumption
Protocol: C2C12 cells (3 × 10^4 cells/well) were placed in XFe96 cell culture plates. After 24 h of incubation at 37 °C, cell growth medium was substituted with an XF base medium supplemented with 2 mM glutamine, 1 mM sodium pyruvate, and 10 mM glucose, pH 7.4. The plate was then transferred in a non-CO2 incubator for 1 h at 37 °C to pre-equilibrate the cells before analysis. An XF Mito Stress Test was performed to assay the cells’ ability to exploit mitochondrial oxidative metabolism, according to the manufacturer’s instructions. The oxygen consumption rate (OCR) was evaluated after the injection of a sequence of compounds that interfere with the electron transport chain: oligomycin (1 μM), carbonyl cyanide-4 (trifluoromethoxy) phenylhydrazone (FCCP) (1 μM), and Rotenone/Antimycin A (0.5 μM). All data were normalized on the protein content of each well.
Figure 10 Results of Mito Stress Test assay. (A) C2C12 cells were subjected to Seahorse XFe96-Mito Stress Test analysis to evaluate oxygen consumption rate (OCR) in real time. OCR values were normalized on protein content. (B) Basal respiration, ATP-linked OCR, spare capacity, maximal respiration, and proton leak were calculated using data obtained from OCR plot after the administration of the adenosine triphosphate ATP synthase inhibitor oligomycin, the proton uncoupler carbonylcyanide p-trifluoromethoxyphenylhydrazone (FCCP), and the combination of the respiratory complex I inhibitor rotenone and the respiratory complex III inhibitor antimycin A. Each point reported in the OCR plot represents the medium value ± SEM obtained from independent replicates (n = 3 or 4). One-way ANOVA with Dunnett’s correction was used to assess differences in experimental features by using Prism 8 software (GraphPad). Statistical significance is annotated as follows: * p ≤ 0.01, ** p ≤ 0.001, *** p ≤ 0.0001, (t-test); ns, not significant; FC, fold change.

C2C12 cells [5] = assay: Glucose uptake assay (2-NBDG, flow cytometry) in C2C12 cells; assay type: cell-based; settings: 2 h 10 mM cytochalasin B
Protocol: To evaluate the impact of avarone (2) on the insulin signaling pathway, C2C12 cells were plated on P35 dishes and grown until 70% confluence. Then, cells were washed with phosphate-buffered saline (PBS) and incubated for 24 h in the presence of a starvation medium (DMEM high glucose containing 2 mM glutamine, 100 U/mL of penicillin, and 100 μg/mL of streptomycin). After this time, cells were stimulated for 30 min with 10 nM insulin (Humulin R, Ely Lilly, Italy) with avarone (2) or the insulin-avarone combination. After this time, cells were washed with cold PBS and lysed using 100 µL of 1X Laemmli sample buffer solution (50 mM Tris-HCl pH 6.8, 2% SDS, 10% glycerol, 1% β-mercaptoethanol, 12.5 mM EDTA, 0.02% bromophenol blue). Cell proteins were withdrawn, transferred in an Eppendorf tube and boiled for 5 min. All samples were stored at −20 °C before the analysis. Analysis of samples was carried out using SDS-PAGE; after electrophoresis, proteins were transferred on a PVDF membrane by Western blot. Phosphorylation levels of the insulin receptor β chain and of the kinase Akt were evaluated using specific antibodies: IR β subunit, clone CT-3 (MABS65) was from Santa Cruz Biotechnology (Santa Cruz, CA, USA); pIR β subunit, Y1162/1163 (sc-25103-R) was from Merck-Millipore (Burlington, MA, USA). Akt (9272S) and p-Akt (9271S) antibodies were from Cell Signaling Technology (Danvers, MA, USA). Finally, β-actin and clone C-4 (sc-47778) were from Merck-Millipore (Burlington, MA, USA). Anti-rabbit and anti-mouse secondary antibodies were from Santa Cruz Biotechnology (Santa Cruz, CA, USA). Detection was performed using Clarity western ECL substrates (BioRad Laboratories, Inc. 1000 Alfred Nobel DriveHercules, CA, USA). Quantitation of the images obtained was carried out using iBright Analysis Software (Thermo Fisher Scientific 168 Third Avenue Waltham, MA, USA, 02451). Glucose uptake was evaluated as previously described. […] Intrinsic and 2-NBDG-derived cell fluorescences were determined using a flow cytometer (FACSCanto II, BD Biosciences, San Jose, CA, USA). […] Quantitative analysis was carried out using FlowJo software (FlowJo^TM v10. BD FlowJo™ Software for Windows Version 10. Ashland, OR: Becton, Dickinson and Company; 2021).
Figure 8 Glucose uptake assay. […] After, cells were washed with PBS, detached using trypsin, collected by centrifugation, and analyzed using a flow cytometer (FACSCanto II, BD Biosciences). […] For each experiment, 10,000 events were analyzed. […] (B) Quantitation of fluorescence levels. […]
Figure 9 Impact of cytochalasin B on avarone-induced glucose uptake. […] After, cells were washed and incubated for 3 h with 40 µM 2-NBDG and then analyzed using a flow cytometer (FACSCanto II, BD Biosciences). For each experiment, 10,000 events were analyzed. […]

human recombinant AKR1B1 [6] = biological target: T2, human recombinant AKR1B1; set-up: method as in Demir et al. [17]; settings: ref Demir et al. [17]; cited from earlier work
3T3-L1 cells = tested on: 3T3-L1 cells; set-up: method as in PMID 19262557, PMID 19091557; settings: ref [24],[27]; cited from earlier work

Compound: 21-dehydroxybolinaquinone [21-dehydroxybolinaquinone (6)]
IC50 (Human PTP1B [1]; ref Li et al. [27]): 39.5 µM

Compound: CNC1=CC(=O)C(C[C@]2(C)[C@@H](C)CC[C@]3(C)C(C)=CCC[C@@H]23)=CC1=O [4-methylaminoavarone (4), 4-(methylamino)avarone]
IC50 (human recombinant AKR1B1 [2]): 62 ± 8 µM | IC50 (Human PTP1B [3]): 21.6 ± 1 µM

Compound: N#C/C(=C\c1cn(-c2ccccc2)c2ccccc12)C(=O)O [UK5099, reference compound]
mitochondrial respiration (OCR) (C2C12 cells [4]): significant reduction in mitochondrial respiration

IC50 (human recombinant AKR1B1 [2]): 0.52 ± 0.19 µM | IC50 (Human PTP1B [3]): 42.2 ± 18 µM
Compound: CC1=CCC[C@H]2[C@](C)(Cc3cc(O)ccc3O)[C@@H](C)CC[C@]12C [avarol (1), avarol]

Compound: C=C1[C@@H](C)[C@H]2[C@H](Cc3ccccc3)NC(=O)[C@]23OC(=O)/C=C/[C@H](O)CCC[C@@H](C)C/C=C/[C@H]3[C@@H]1O [Cytochalasin B, cytochalasin B, reference compound]
effect of preincubation on insulin-stimulated glucose uptake (C2C12 cells [5]; then 10 nM insulin 30 min): strongly affects insulin-stimulated glucose uptake | effect of preincubation on avarone-mediated glucose uptake (C2C12 cells [5]; then 25 µM avarone 30 min): abolishes the avarone-mediated glucose uptake

IC50 (human recombinant AKR1B1 [2]): 73 ± 15 µM | IC50 (Human PTP1B [3]): 15.2 ± 2.1 µM
Compound: CNC1=CC(=O)C=C(C[C@]2(C)[C@@H](C)CC[C@]3(C)C(C)=CCC[C@@H]23)C1=O [3-methylaminoavarone (3), 3-(methylamino)avarone]

Compound: O=C1C=CC(=O)C=C1 [p-benzoquinone]
IC50 (human recombinant AKR1B1 [6]): 1.93 µM | IC50 (Human PTP1B [1]; ref Zhang et al. [24]): 38.9 ± 5.2 µM

Compound: dysidine [dysidine (5)]
glucose uptake in 3T3-L1 cells (3T3-L1 cells): increase glucose uptake | IC50 (Human PTP1B [1]; ref Li et al. [27]): 6.7 ± 0.1 µM | selectivity over other PTPs (TC-PTP and CD45) (Human PTP1B [1]; ref [24],[27]): moderate selectivity | type of PTP1B inhibition (Human PTP1B [1]; ref [24],[27]): reversible slow-binding PTP1B inhibitor
